Columns and labels:
[1] = equivalent to dexamethasone 0.75 mg; cited from earlier work
LPS-GalN challenged mice = experiment: LPS-GalN model of fatal cytokine storm and sepsis; RJX, DEX or RJX+DEX 2 hours post LPS-GalN; assay type: in vivo, BALB/c mice; conditions: for Censored: alive at 24 h; for Events: deaths within 24 h
[2] = RJX 0.7 ml/kg (n=20), DEX 0.6 mg/kg (n=10), or both (n=20)

Compound: C[C@]12C=CC(=O)C=C1CC[C@@H]1[C@@H]2[C@@H](O)C[C@@]2(C)[C@H]1CC[C@]2(O)C(=O)CO [Prednisolone]
- Approximate Equivalent Dose [1]: 5 mg

Compound: C[C@@H]1C[C@H]2[C@@H]3CCC4=CC(=O)C=C[C@]4(C)[C@@]3(F)[C@@H](O)C[C@]2(C)[C@@]1(O)C(=O)CO [DEX, dexamethasone]
- Censored (LPS-GalN challenged mice; DEX 0.1 mg/kg i.p. 2 h post LPS-GalN, n=6): 1
- Median survival (LPS-GalN challenged mice; DEX 0.1 mg/kg, n=6): 5.1 h
- Proportion (24-h mortality) (LPS-GalN challenged mice; DEX 0.1 mg/kg, n=6): 83.3%
- Events (LPS-GalN challenged mice; DEX 0.1 mg/kg, n=6): 5
- Censored (LPS-GalN challenged mice; DEX 0.6 mg/kg i.p. 2 h post LPS-GalN, n=6): 3
- Median survival (LPS-GalN challenged mice; DEX 0.6 mg/kg, n=6): 15.0 h
- Proportion (mortality) (LPS-GalN challenged mice; DEX 0.6 mg/kg, n=6): 50.0%
- Events (LPS-GalN challenged mice; DEX 0.6 mg/kg, n=6): 3
- Censored (LPS-GalN challenged mice; DEX 6.0 mg/kg i.p. 2 h post LPS-GalN, n=6): 4
- Proportion (mortality) (LPS-GalN challenged mice; DEX 6.0 mg/kg, n=6): 33.3%
- Events (LPS-GalN challenged mice; DEX 6.0 mg/kg, n=6): 2
- Proportion (mortality) (LPS-GalN challenged mice; [2]): 50.0%
- Censored (LPS-GalN challenged mice; RJX 0.7 ml/kg (n=20), DEX 0.6 mg/kg (n=10), or both (n=20) 2 h post LPS-GalN): 5
- Events (LPS-GalN challenged mice; [2]): 5
- lung histopathological ALI scores, range (LPS-GalN challenged mice; RJX 0.7 ml/kg, DEX 6.0 mg/kg, alone or combined, n=6): 1-3
- ALI score of representative mouse (LPS-GalN challenged mice; single dose at 2 hours post-LPS-GalN, sacrificed at 24 hours, FIG. 20): 2

Compound: C[C@]12CCC(=O)C=C1CC[C@@H]1[C@@H]2[C@@H](O)C[C@@]2(C)[C@H]1CC[C@]2(O)C(=O)CO [Hydrocortisone]
- Approximate Equivalent Dose [1]: 20 mg

Compound: C[C@]12C=CC(=O)C=C1CC[C@H]1[C@@H]3C[C@@H](O)[C@](O)(C(=O)CO)[C@@]3(C)C[C@H](O)[C@@]12F [Triamcinolone]
- Approximate Equivalent Dose [1]: 4 mg

Compound: C[C@]12CCC(=O)C=C1CC[C@@H]1[C@@H]2C(=O)C[C@@]2(C)[C@H]1CC[C@]2(O)C(=O)CO [Cortisone]
- Approximate Equivalent Dose [1]: 25 mg
